Reference: patent US20190290673A1, “COMPOSITIONS AND METHODS FOR THE TREATMENT OF HBV INFECTION” (priority 2016, published 2019)

Legend:
[1] = Whole body weight change in transgenic HBV mice; format: in vivo; conditions: per os, qd x 14 d, dosage 'high'; relative to vehicle values
Protocol: (§1) The goal of this study was to evaluate the efficacy of exemplary compounds for the treatment of HBV infection in transgenic mice. Homozygous […] transgenic HBV mice (21.6±2.8 g) originally obtained from the laboratory of Dr. Frank Chisari (Scripps Research Institute, LaJolla, Calif.) and derived from founder 1.3.32 were used in this study. Female and male HBV transgenic mice were block-randomized to the treatment groups (Table 1). Compounds of Formula (Ie) and Formula (If) were administered at 0.1 mL/30-gram mouse by oral gavage. Adefovir dipivoxil (ADV) was prepared as a solution of 2 mg/mL in 0.025 M sodium citrate, wherein 0.1 mL was administered by oral gavage (per os, p.o.) per 30 g mouse for a dosage of […].
(§2) Treatment was initiated at day 1. After the last treatment on day 14, necropsy was performed to obtain tissues to assay liver HBV DNA and sera for HBV antigens HBeAg and HBsAg. Weights were obtained on days −1, 1 (day of treatment initiation), 3, 7, and 14. Data were analyzed by one-way analysis of variance. Two animals died due to oral gavage treatment at day 7, one in group 1 and another in group 3. FIGS. 2A-2B show the effect of Formula (Ie) and Formula (If) on liver HBV DNA levels using Southern blot hybridization (FIG. 2A) and semi-quantitative PCR (FIG. 2B) as compared to vehicle and ADV.

HBV = assay: Efficacy for treatment of HBV infection in transgenic HBV mice (liver HBV DNA, serum HBeAg/HBsAg); format: in vivo; conditions: per os, qd x 14 d, dosage 'high'; for liver HBV DNA levels: Southern blot hybridization and semi-quantitative PCR, compared to vehicle and ADV; for serum levels of HBeAg / serum levels of HBsAg: relative to vehicle values
Protocol: as §1, §2

Row | Structure (SMILES) | whole body weight change [1] | liver HBV DNA levels (HBV) | serum levels of HBeAg (HBV) | serum levels of HBsAg (HBV)
1 | CO[C@H]1C(O[P@](=O)(OC[C@H]2O[C@@H](n3cnc4c(N)ncnc43)CC2O)SCOC(=O)OC(C)C)[C@@H](CO)O[C@H]1n1ccc(=O)[nH]c1=O (some centres unmarked) [Formula (Ie)] | Neither Formula (Ie) or Formula (If) had an effect | lowered HBV DNA levels in the liver | Neither Formula (Ie) or Formula (If) had an effect | Neither Formula (Ie) or Formula (If) had an effect
2 | CO[C@H]1C(O[P@@](=O)(OC[C@H]2O[C@@H](n3cnc4c(N)ncnc43)CC2O)SCOC(=O)OC(C)C)[C@@H](CO)O[C@H]1n1ccc(=O)[nH]c1=O (some centres unmarked) [Formula (If)] | Neither Formula (Ie) or Formula (If) had an effect | lowered HBV DNA levels in the liver | Neither Formula (Ie) or Formula (If) had an effect | Neither Formula (Ie) or Formula (If) had an effect
